Patent US9695155B2, “Herbicidal substituted pyrimidinyloxy benzene compounds” (E. I. DU PONT DE NEMOURS AND COMPANY, priority 2013, dated 2017)

Tests used:
Heteranthera limosa = assay: Test B flooded paddy test; assay type: in vivo; settings: Flood, 250 g ai/ha; 0 to 100 scale where 0 is no effect and 100 is complete control
In short: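 Plants at 2-leaf stage; pots flooded to 3 cm above soil and compound applied directly into paddy water, depth held throughout. After 13 to 15 days in greenhouse, visual rating versus controls on 0 (no effect) to 100 (complete control) scale.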

morningglory [1] = assay: Test C postemergence; assay type: in vivo, Ipomoea coccinea; settings: for Plant response rating (0 to 100), Morningglory: postemergence; for Plant response rating, Morningglory: Postemergence, scale 0 to 100 (0 no effect, 100 complete control)
In short: (§1)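 Seeds were sown in loam–sand blend and sprayed preemergence, while plants at 1- to 4-leaf stage (2–18 cm) in peat-based medium received postemergence sprays; test chemicals were formulated in a non-phytotoxic solvent with surfactant. After 13–15 days in a greenhouse, injury was rated visually against controls, 0 (no effect) to 100 (complete control).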

corn [2] = assay: Test C postemergence; assay type: in vivo, Zea mays; settings: for Plant response rating (0 to 100), Corn: postemergence; for Plant response rating, Corn: Postemergence, scale 0 to 100 (0 no effect, 100 complete control)
In short: as §1

pigweed = assay: Test C postemergence; assay type: in vivo, Amaranthus retroflexus; settings: for Plant response rating (0 to 100), Pigweed: postemergence; for Plant response rating, Pigweed: Postemergence, scale 0 to 100 (0 no effect, 100 complete control)
In short: as §1

barnyardgrass = assay: Test A preemergence; assay type: in vivo, Echinochloa crus-galli
In short: (§2)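 Visual injury scored 0–100 (100 = complete control) against untreated controls about 10 days after treatment in a greenhouse. Test chemicals, formulated with surfactant in non-phytotoxic solvent, were sprayed on soil preemergence or on 2-10 cm, one- to two-leaf plants postemergence.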

large (Lg) crabgrass = assay: Test A preemergence; assay type: in vivo, Digitaria sanguinalis
In short: as §2

wheat = assay: Test A preemergence; assay type: in vivo, Triticum aestivum; settings: for Wheat plant response rating: 0 to 100 scale, 0 no effect, 100 complete control, approx. 10 days
In short: as §2

corn [3] = assay: Test A postemergence; assay type: in vivo, Zea mays
In short: as §2

kochia = assay: Test C postemergence; assay type: in vivo, Kochia scoparia; settings: for Plant response rating (0 to 100), Kochia: postemergence; for Plant response rating, Kochia: Postemergence, scale 0 to 100 (0 no effect, 100 complete control)
In short: as §1

wild oat = assay: Test C postemergence; assay type: in vivo, Avena fatua; settings: for Plant response rating (0 to 100), Oat, Wild: postemergence; for Plant response rating, Oat, Wild: Postemergence, scale 0 to 100 (0 no effect, 100 complete control)
In short: as §1

morningglory [4] = assay: Test A postemergence; assay type: in vivo, Ipomoea spp.
In short: as §2

giant foxtail = assay: Test A postemergence; assay type: in vivo, Setaria faberii
In short: as §2

[5] = 125 g ai/ha, 0 to 100 scale where 0 is no effect and 100 is complete control
[6] = 500 g ai/ha, 0 to 100 scale, 0 no effect, 100 complete control, approx. 10 days
[7] = 500 g ai/ha, 0 to 100 scale, 0 no effect, 100 complete control
[8] = 8 g ai/ha, 0 is no effect, 100 is complete control
[9] = 16 g ai/ha, 0 is no effect, 100 is complete control
[10] = 1000 g ai/ha, 0 to 100 scale, 0 no effect, 100 complete control

SMILES: N#Cc1cccc(Oc2ncc(F)cn2)c1-n1cc(Br)cn1 [Compound 62]
- Plant response rating, Ducksalad (Heteranthera limosa): 80
- Plant response rating (0 to 100), Morningglory (morningglory [1]; 125 g ai/ha): 85
- Plant response rating (0 to 100), Morningglory (morningglory [1]; 250 g ai/ha): 90
- Plant response rating, Morningglory (morningglory [1]; 31 g ai/ha, 13 to 15 days): 65
- Plant response rating, Morningglory (morningglory [1]; 62 g ai/ha): 70
- Plant response rating (0 to 100), Corn (corn [2]; 125 g ai/ha): 15
- Plant response rating (0 to 100), Corn (corn [2]; 250 g ai/ha): 20
- Plant response rating, Corn (corn [2]; 31 g ai/ha, 13 to 15 days): 5
- Plant response rating, Corn (corn [2]; 62 g ai/ha): 15
- Plant response rating (0 to 100), Pigweed (pigweed; 125 g ai/ha): 75
- Plant response rating (0 to 100), Pigweed (pigweed; 250 g ai/ha): 80
- Plant response rating, Pigweed (pigweed; 31 g ai/ha, 13 to 15 days): 50
- Plant response rating, Pigweed (pigweed; 62 g ai/ha): 65
- Plant response rating, Barnyardgrass (barnyardgrass; [5]): 60
- Barnyardgrass plant response rating (barnyardgrass; [6]): 100
- Plant response rating, Crabgrass, Large (large (Lg) crabgrass; [5]): 90
- Crabgrass, Large plant response rating (large (Lg) crabgrass; [6]): 100
- Plant response rating, Wheat (wheat; [5]): 0
- Wheat plant response rating (wheat; 500 g ai/ha): 80
- Plant response rating, Corn (corn [3]; [5]): 70
- Plant response rating, Corn (corn [3]; [7]): 90
- Plant response rating (0 to 100), Kochia (kochia; 125 g ai/ha): 90
- Plant response rating (0 to 100), Kochia (kochia; 250 g ai/ha): 95
- Plant response rating, Kochia (kochia; 31 g ai/ha, 13 to 15 days): 80
- Plant response rating, Kochia (kochia; 62 g ai/ha): 90
- Plant response rating (0 to 100), Oat, Wild (wild oat; 125 g ai/ha): 30
- Plant response rating (0 to 100), Oat, Wild (wild oat; 250 g ai/ha): 35
- Plant response rating, Oat, Wild (wild oat; 31 g ai/ha, 13 to 15 days): 0
- Plant response rating, Oat, Wild (wild oat; 62 g ai/ha): 0
- Plant response rating, Morningglory (morningglory [4]; [5]): 90
- Plant response rating, Morningglory (morningglory [4]; [7]): 100
- Plant response rating, Foxtail, Giant (giant foxtail; [5]): 90
- Plant response rating, Foxtail, Giant (giant foxtail; [7]): 100

SMILES: CC(=NO)c1cn(-c2c(Br)cccc2Oc2ncc(Cl)cn2)nn1 [Compound 115]
- Plant response rating, Ducksalad (Heteranthera limosa): 70
- Plant response rating (0 to 100), Morningglory (morningglory [1]; [8]): 0
- Plant response rating (0 to 100), Morningglory (morningglory [1]; [9]): 40
- Plant response rating (0 to 100), Corn (corn [2]; 4 g ai/ha, 0 is no effect, 100 is complete control): 5
- Plant response rating (0 to 100), Corn (corn [2]; [8]): 10
- Plant response rating (0 to 100), Corn (corn [2]; [9]): 5
- Plant response rating (0 to 100), Pigweed (pigweed; [8]): 15
- Plant response rating (0 to 100), Pigweed (pigweed; [9]): 50
- Plant response rating, Barnyardgrass (barnyardgrass; [10]): 100
- Plant response rating, Crabgrass, Large (large (Lg) crabgrass; [10]): 100
- Wheat plant response rating (wheat; 1000 g ai/ha): 40
- Plant response rating, Corn (corn [3]; [10]): 90
- Plant response rating (0 to 100), Kochia (kochia; [8]): 0
- Plant response rating (0 to 100), Kochia (kochia; [9]): 0
- Plant response rating (0 to 100), Oat, Wild (wild oat; [8]): 0
- Plant response rating (0 to 100), Oat, Wild (wild oat; [9]): 0
- Plant response rating, Morningglory (morningglory [4]; [10]): 100
- Plant response rating, Foxtail, Giant (giant foxtail; [10]): 90
